Our source for the inhibition values is US10435399B2, “HDAC6 inhibitory heterocyclic compound” (TAKEDA PHARMACEUTICAL COMPANY LIMITED, priority 2017, dated 2019).

The target of this assay is T1, HDAC6 enzyme (Homo sapiens, UniProt Q9UBN7).
T1 construct: transducing full length HDAC6 gene into Sf-9 insect cells; GST; purchased SignalChem; host or cells: Sf-9 insect cells
T1 sequence (Q9UBN7 1-1215): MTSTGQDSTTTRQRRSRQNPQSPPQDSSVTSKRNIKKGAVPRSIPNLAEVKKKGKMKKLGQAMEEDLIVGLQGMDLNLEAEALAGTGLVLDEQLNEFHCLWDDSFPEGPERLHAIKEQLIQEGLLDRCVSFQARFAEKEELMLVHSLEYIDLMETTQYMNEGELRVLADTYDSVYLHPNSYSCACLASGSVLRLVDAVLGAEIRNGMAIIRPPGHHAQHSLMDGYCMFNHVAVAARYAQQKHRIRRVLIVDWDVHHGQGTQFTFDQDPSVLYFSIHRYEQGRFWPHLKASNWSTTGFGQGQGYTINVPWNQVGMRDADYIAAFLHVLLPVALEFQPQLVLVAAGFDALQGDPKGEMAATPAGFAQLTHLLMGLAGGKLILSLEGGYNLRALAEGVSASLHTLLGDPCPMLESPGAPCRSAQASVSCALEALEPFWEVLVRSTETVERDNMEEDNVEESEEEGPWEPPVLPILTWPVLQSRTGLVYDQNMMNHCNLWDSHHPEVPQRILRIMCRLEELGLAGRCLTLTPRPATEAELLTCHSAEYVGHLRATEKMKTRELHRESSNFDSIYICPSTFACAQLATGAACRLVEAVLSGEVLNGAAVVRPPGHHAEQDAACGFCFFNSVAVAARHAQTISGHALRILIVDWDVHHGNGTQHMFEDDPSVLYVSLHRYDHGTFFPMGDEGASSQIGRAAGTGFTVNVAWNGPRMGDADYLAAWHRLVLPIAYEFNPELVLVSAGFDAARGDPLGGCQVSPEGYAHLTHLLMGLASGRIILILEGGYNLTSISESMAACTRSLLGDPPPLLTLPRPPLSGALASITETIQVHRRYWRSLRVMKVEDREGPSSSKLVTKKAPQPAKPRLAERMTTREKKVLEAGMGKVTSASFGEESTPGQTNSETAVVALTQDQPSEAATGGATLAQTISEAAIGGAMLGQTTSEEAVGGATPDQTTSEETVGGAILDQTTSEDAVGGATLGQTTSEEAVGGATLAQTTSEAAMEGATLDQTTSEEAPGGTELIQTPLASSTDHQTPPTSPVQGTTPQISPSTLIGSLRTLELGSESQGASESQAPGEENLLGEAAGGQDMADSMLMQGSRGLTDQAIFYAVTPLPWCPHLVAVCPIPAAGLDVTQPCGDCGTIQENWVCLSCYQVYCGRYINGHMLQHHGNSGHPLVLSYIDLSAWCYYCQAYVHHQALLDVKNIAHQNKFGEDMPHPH
Nature of the assay: HDAC6 enzyme inhibitory activity (HDAC-Glo I/II Assay kit). It counts as biochemical. Particulars: 10 μM; wells without enzyme = 100% inhibition; read-out: HDAC6 inhibitory rate (%) (10 μM). An outline of the steps: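 Luminescence read-out after 20 min reaction with HDAC-Glo substrate-developer, following 60 min room-temperature preincubation of compound with Sf-9-expressed, GST-purified full-length enzyme. Inhibition is relative to no-enzyme wells set as 100%.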

The structures appear in SMILES notation.

On to `O=C1c2cc(-c3nnc(C(F)F)o3)ccc2CN1c1ccccc1-c1cc(F)cc(F)c1` [Example 284, 2-(3′,5′-difluorobiphenyl-2-yl)-6-(5-(difluoromethyl)-1,3,4-oxadiazol-2-yl)isoindolin-1-one], for which the inhibition at 10 µM worked out at 101%.

For the compound `O=C1c2cc(-c3nnc(C(F)F)o3)ccc2CN1c1ccccc1-c1ccc(C2CC2)cc1` [Example 285, 2-(4′-cyclopropylbiphenyl-2-yl)-6-(5-(difluoromethyl)-1,3,4-oxadiazol-2-yl)isoindolin-1-one], the inhibition at 10 µM stood at 95%.

For the compound `O=C1c2cc(-c3nnc(C(F)F)o3)ccc2CN1c1ccccc1-c1cccc(C2CC2)c1` [Example 286, 2-(3′-cyclopropylbiphenyl-2-yl)-6-(5-(difluoromethyl)-1,3,4-oxadiazol-2-yl)isoindolin-1-one], the inhibition at 10 µM is 99%.

Regarding `O=C1c2cc(-c3nnc(C(F)F)o3)ccc2CN1c1ccccc1-c1ccc2c(c1)CCO2` [Example 287, 6-(5-(difluoromethyl)-1,3,4-oxadiazol-2-yl)-2-(2-(2,3-dihydro-1-benzofuran-5-yl)phenyl)isoindolin-1-one], the inhibition at 10 µM amounted to 100%.

Regarding `O=C1c2cc(-c3nnc(C(F)F)o3)ccc2CN1c1ccccc1-c1cccc2c1CCO2` [Example 288, 6-(5-(difluoromethyl)-1,3,4-oxadiazol-2-yl)-2-(2-(2,3-dihydro-1-benzofuran-4-yl)phenyl)isoindolin-1-one], the inhibition at 10 µM worked out at 102%.

Take `O=C1c2cc(-c3nnc(C(F)F)o3)ccc2CN1c1ccccc1-c1cccc2c1OCC2` [Example 289, 6-(5-(difluoromethyl)-1,3,4-oxadiazol-2-yl)-2-(2-(2,3-dihydro-1-benzofuran-7-yl)phenyl)isoindolin-1-one]: the inhibition at 10 µM is 101%.

As to `CCOc1cc(-c2ccccc2N2Cc3ccc(-c4nnc(C(F)F)o4)cc3C2=O)ccn1` [Example 290, 6-(5-(difluoromethyl)-1,3,4-oxadiazol-2-yl)-2-(2-(2-ethoxypyridin-4-yl)-phenyl)isoindolin-1-one], the inhibition at 10 µM turned out to be 99%.

Consider `CCOc1cnccc1-c1ccccc1N1Cc2ccc(-c3nnc(C(F)F)o3)cc2C1=O` [Example 291, 6-(5-(difluoromethyl)-1,3,4-oxadiazol-2-yl)-2-(2-(3-ethoxypyridin-4-yl)-phenyl)isoindolin-1-one], for which the inhibition at 10 µM amounted to 98%.

Take `O=C1c2cc(-c3nnc(C(F)F)o3)ccc2CN1c1ccccc1-c1ccc(C(F)F)cc1` [Example 292, 2-(4′-(difluoromethyl)-biphenyl-2-yl)-6-(5-(difluoromethyl)-1,3,4-oxadiazol-2-yl)isoindolin-1-one]: the inhibition at 10 µM was determined as 97%.

Regarding `O=C1c2cc(-c3nnc(C(F)F)o3)ccc2CN1c1ccccc1-c1cccc(C(F)F)c1` [Example 293, 2-(3′-(difluoromethyl)-biphenyl-2-yl)-6-(5-(difluoromethyl)-1,3,4-oxadiazol-2-yl)isoindolin-1-one], the inhibition at 10 µM was determined as 100%.

Regarding `CC(C)Oc1cc(-c2ccccc2N2Cc3ccc(-c4nnc(C(F)F)o4)cc3C2=O)ccn1` [Example 294, 6-(5-(difluoromethyl)-1,3,4-oxadiazol-2-yl)-2-(2-(2-isopropoxypyridin-4-yl)phenyl)isoindolin-1-one], the inhibition at 10 µM worked out at 100%.

Regarding `COc1ncc(Cl)cc1-c1ccccc1N1Cc2ccc(-c3nnc(C(F)F)o3)cc2C1=O` [Example 295, 2-(2-(5-chloro-2-methoxy-pyridin-3-yl)phenyl)-6-(5-(difluoromethyl)-1,3,4-oxadiazol-2-yl)isoindolin-1-one], the inhibition at 10 µM was found to be 102%.

For `O=C1c2cc(-c3nnc(C(F)F)o3)ccc2CN1c1ccccc1-c1cccc(OC(F)F)c1` [Example 296, 2-(3′(difluoromethoxy)-biphenyl-2-yl)-6-(5-(difluoromethyl)-1,3,4-oxadiazol-2-yl)isoindolin-1-one], the inhibition at 10 µM stood at 101%.

On to `O=C1c2cc(-c3nnc(C(F)F)o3)ccc2CN1c1ccccc1-c1cncc(C(F)(F)F)c1` [Example 297, 6-(5-(difluoromethyl)-1,3,4-oxadiazol-2-yl)-2-(2-(5-(trifluoromethyl)pyridin-3-yl)phenyl)isoindolin-1-one], for which the inhibition at 10 µM is 98%.

Regarding `O=C1c2cc(-c3nnc(C(F)F)o3)ccc2CN1c1ccccc1-c1ccccc1OC(F)(F)F` [Example 298, 6-(5-(difluoromethyl)-1,3,4-oxadiazol-2-yl)-2-(2′-(trifluoromethoxy)biphenyl-2-yl)isoindolin-1-one], the inhibition at 10 µM is 100%.

Consider `O=C1c2cc(-c3nnc(C(F)F)o3)ccc2CN1c1ccccc1-c1ccc(OC(F)(F)F)cc1` [Example 299, 6-(5-(difluoromethyl)-1,3,4-oxadiazol-2-yl)-2-(4′-(trifluoromethoxy)biphenyl-2-yl)isoindolin-1-one], for which the inhibition at 10 µM stood at 94%.

On to `O=C1c2cc(-c3nnc(C(F)F)o3)ccc2CN1c1ccccc1-c1cccc(OC(F)(F)F)c1` [Example 300, 6-(5-(difluoromethyl)-1,3,4-oxadiazol-2-yl)-2-(3′-(trifluoromethoxy)biphenyl-2-yl)isoindolin-1-one], for which the inhibition at 10 µM turned out to be 97%.

Take `O=C1c2cc(-c3nnc(C(F)F)o3)ccc2CN1c1ccccc1-c1cccc(F)n1` [Example 301, 6-(5-(difluoromethyl)-1,3,4-oxadiazol-2-yl)-2-(2-(6-fluoropyridin-2-yl)phenyl)-isoindolin-1-one]: the inhibition at 10 µM came to 106%.

For `COc1cccc(-c2ccccc2N2Cc3ccc(-c4nnc(C(F)F)o4)cc3C2=O)n1` [Example 302, 6-(5-(difluoromethyl)-1,3,4-oxadiazol-2-yl)-2-(2-(6-methoxypyridin-2-yl)-phenyl)isoindolin-1-one], the inhibition at 10 µM was determined as 100%.

As to `O=C1c2cc(-c3nnc(C(F)F)o3)ccc2CN1c1ccccc1-c1cnc2occc2c1` [Example 303, 6-(5-(difluoromethyl)-1,3,4-oxadiazol-2-yl)-2-(2-(furo-[2,3-b]pyridin-5-yl)phenyl)-isoindolin-1-one], the inhibition at 10 µM is 99%.

`O=C1c2cc(-c3nnc(C(F)F)o3)ccc2CN1c1ccccc1-c1ccc2c(c1)OCC2` [Example 304, 6-(5-(difluoromethyl)-1,3,4-oxadiazol-2-yl)-2-(2-(2,3-dihydro-1-benzofuran-6-yl)phenyl)isoindolin-1-one]: the inhibition at 10 µM is 99%.

`O=C1c2cc(-c3nnc(C(F)F)o3)ccc2CN1c1ccccc1-c1cccc(Cl)n1` [Example 305, 2-(2-(6-chloropyridin-2-yl)-phenyl)-6-(5-(difluoro-methyl)-1,3,4-oxadiazol-2-yl)isoindolin-1-one]: the inhibition at 10 µM came to 101%.

`Cc1cn2cc(-c3ccccc3N3Cc4ccc(-c5nnc(C(F)F)o5)cc4C3=O)ccc2n1` [Example 306, 6-(5-(difluoromethyl)-1,3,4-oxadiazol-2-yl)-2-(2-(2-methylimidazo[1,2-a]-pyridin-6-yl)phenyl)-isoindolin-1-one]: the inhibition at 10 µM was determined as 101%.

Take `O=C1c2cc(-c3nnc(C(F)F)o3)ccc2CN1c1ccccc1-c1ccc(F)c(F)c1` [Example 307, 2-(3′,4′-difluorobiphenyl-2-yl)-6-(5-(difluoromethyl)-1,3,4-oxadiazol-2-yl)-isoindolin-1-one]: the inhibition at 10 µM was found to be 98%.

For the compound `O=C1c2cc(-c3nnc(C(F)F)o3)ccc2CN1c1ccccc1-c1cccc(F)c1F` [Example 308, 2-(2′,3′-difluorobiphenyl-2-yl)-6-(5-(difluoromethyl)-1,3,4-oxadiazol-2-yl)-isoindolin-1-one], the inhibition at 10 µM is 97%.

On to `O=C1c2cc(-c3nnc(C(F)F)o3)ccc2CN1c1ccccc1-c1cc(F)ccc1F` [Example 309, 2-(2′,5′-difluorobiphenyl-2-yl)-6-(5-(difluoromethyl)-1,3,4-oxadiazol-2-yl)isoindolin-1-one], for which the inhibition at 10 µM is 97%.

Regarding `O=C1c2cc(-c3nnc(C(F)F)o3)ccc2CN1c1ccccc1-c1ccc(F)cc1F` [Example 310, 2-(2′,4′-difluorobiphenyl-2-yl)-6-(5-(difluoromethyl)-1,3,4-oxadiazol-2-yl)isoindolin-1-one], the inhibition at 10 µM is 91%.
